Tests used:
[1] = Acute toxicity (LD50) in mouse; format: in vivo; details: in vivo, 10 days observation
Protocol: (§1) Acute toxicity was studied in male and female mice of Swiss stock, and in male and female albino rats of Wistar stock, by administering the active principle orally, intravenously and intramuscularly.
(§2) For each method of administration, doses in geometrical progression were administered to 10 animals for each dose over a period of observation of 10 days.
(§3) On termination of the period of observation, the LD50 and the relative reliability limits were calculated by the method of Litchfield and Wilcoxon (Pharmacol. Exp. Ther., 96-19, 1949).

[2] = Acute toxicity (LD50) in rat; format: in vivo; details: in vivo, 10 days observation
Protocol: as §1, §2, §3

mice of Swiss stock = assay: Acute toxicity (LD50) in mouse; format: in vivo; details: 10 days observation; for LD50, mouse, intram. admin.: intramuscular; for LD50, mouse, intrav. admin.: intravenous; for LD50, mouse, oral admin.: Litchfield and Wilcoxon
Protocol: as §1, §2, §3

[3] = system: albino rats of Wistar stock; assay: Acute toxicity (LD50) in rat; format: in vivo; details: 10 days observation; for LD50, rat, intram. admin.: intramuscular; for LD50, rat, intrav. admin.: intravenous
Protocol: as §1, §2, §3

[4] = system: gastric ulcers induced by the ligature of the pylorus; assay: Gastric ulcers induced by ligature of the pylorus; format: in vivo, rat (Sprague Dawley); details: oral, one hour after operation; compounds and ranitidine 1, 3, 10, 30 mg/kg; cimetidine 3, 10, 30, 100 mg/kg
Protocol: To study the effect of the new compounds according to the present invention, 50 male and female rats of Sprague Dawley stock weighing approximately 200 grams were used for each compound examined.
The animals, under diet, were subjected to legature of the pylorus.
One hour after this operation, the animals were treated orally either with doses of 1, 3, 10 and 30 mg/kg of the examined compounds, or with doses of 3, 10, 30 and 100 mg/kg of cimetidine, or with doses of 1, 3, 10 and 30 mg/kg of ranitidine.

[5] = im, intramuscular, read-out: LD50, mouse, intram. admin.
[6] = intravenous, read-out: LD50, mouse, intrav. admin.
[7] = oral, Litchfield and Wilcoxon, read-out: LD50, mouse, oral admin.
[8] = im, intramuscular, read-out: LD50, rat, intram. admin.
[9] = intravenous, read-out: LD50, rat, intrav. admin.
[10] = oral, read-out: LD50, rat, oral admin.

| Molecule | LD50 at 240 h [1, 5] [mg/kg] | LD50 at 240 h [1, 6] [mg/kg] | LD50 at 240 h [1, 7] [mg/kg] | LD50 at 240 h [2, 8] [mg/kg] | LD50 at 240 h [2, 9] [mg/kg] | LD50 at 240 h [2, 10] [mg/kg] | LD50, mouse, intram. admin. (mice of Swiss stock) [mg/kg] | LD50, mouse, intrav. admin. (mice of Swiss stock) [mg/kg] | LD50, mouse, oral admin. (mice of Swiss stock) [mg/kg] | LD50, rat, intram. admin. [3] [mg/kg] | LD50, rat, intrav. admin. [3] [mg/kg] | LD50, rat, oral admin. ([3]; oral) [mg/kg] | Inhibition of incidence of gastric ulcers induced by ligature of the pylorus [4] |
| --- | --- | --- | --- | --- | --- | --- | --- | --- | --- | --- | --- | --- | --- |
| CN(C)Cc1ccc(CSCCNC(=C[N+](=O)[O-])N2CCN(Cc3ccccc3)CC2)o1 [AU/006, 1-N-[2-[[5-[(dimethylamino)methyl]furfuryl]thio]ethyl]amino-1-(4-benzyl-piperazino)-2-nitroethene] | 300 | 90 | 2700 | 2100 | 100 |  |  |  |  |  |  |  |  |
| CN(C)Cc1ccc(CSCCNC(=C[N+](=O)[O-])N2CCCCC2)o1 | 300 | 90 | 2600 | 2100 | 100 |  |  |  |  |  |  |  |  |
| CCN1CCCC(NC(=C[N+](=O)[O-])NCCSCc2ccc(CN(C)C)o2)C1 (stereo not drawn) [AU/003] | 300 | 90 | 2800 | 2200 | 100 |  |  |  |  |  |  |  |  |
| CN(C)Cc1ccc(CSCCNC(=C[N+](=O)[O-])NN2CCCCCC2)o1 [AU/014, N-[2-[[5-[(dimethylamino)methyl]furfuryl]thio]ethyl]-N'-(hexamethyleneimino)-2-nitro-1,1-ethenediamine] | 300 | 90 | 2600 | 2200 | 100 |  |  |  |  |  |  |  |  |
| CN(C)Cc1ccc(CSCCNC(=C[N+](=O)[O-])NC2CC3C=CC2C3)o1 (stereo not drawn) [AU/020] | 300 | 110 | 2700 | 2100 | 110 |  |  |  |  |  |  |  |  |
| CN(C)Cc1ccc(CSCCNC(=C[N+](=O)[O-])N2CCCC2)o1 [AU/017, 1-N-[2-[[5-[(dimethylamino)methyl]furfuryl]thio]ethyl]-amino-1-pyrrolidino-2-nitroethene] | 300 | 100 | 2600 | 2200 | 100 |  |  |  |  |  |  |  |  |
| CN(C)Cc1ccc(CSCCNC(=C[N+](=O)[O-])N2CCC(Cc3ccccc3)CC2)o1 [AU/005, 1-N-[2-[[5-[(dimethylamino)methyl]furfuryl]thio]ethyl]-amino-1-(4-benzyl-piperidino)-2-nitroethene] | 300 | 95 | 2700 | 2100 | 110 | 5500 |  |  |  |  |  |  |  |
| CN(C)Cc1ccc(CSCCNC(=C[N+](=O)[O-])NC2=CCC=CC2)o1 [AU/010, N-[2-[[5-[(dimethylamino)methyl]furfuryl]thio]ethyl]-N'-(1,4-ciclohexadienyl)-2-nitro-1,1-ethenediamine] |  |  |  |  |  |  | 310 | 95 | 2700 | 2200 | 110 |  |  |
| N-[2-[[5-[(dimethylamino)methyl]furfuryl]thio]ethyl]-N'-(1,4-cyclohexadienyl-2-ethyl)-2-nitro-1,1-ethenediamine [AU/012] |  |  |  |  |  |  | 300 | 90 | 2800 | 2100 | 110 |  |  |
| CN(C)Cc1ccc(CSCCNC(=C[N+](=O)[O-])NCC2=CCC=CC2)o1 [AU/011, N-[2-[[5-[(dimethylamino)methyl]furfuryl]thio]ethyl]-N'-(1,4-cyclohexadienyl-2-methyl)-2-nitro-1,1-ethenediamine] |  |  |  |  |  |  | 310 | 90 | 2700 | 2100 | 110 | 5510.0 |  |
| CC1CCN(C(=C[N+](=O)[O-])NCCSCc2ccc(CN(C)C)o2)CC1 [AU/002, 1-N-[2-[[5-[(dimethylamino)methyl]furfuryl]thio]ethyl]amino-1-(4-methyl-piperidino)-2-nitro-ethene] | 320 | 100 | 2700 | 2000 | 100 |  |  |  |  |  |  |  |  |
| CN(C)Cc1ccc(CSCCNC(=C[N+](=O)[O-])NC2CCCC2)o1 [AU/016, N-[2-[[5-[(dimethylamino)methyl]furfuryl]thio]ethyl]-N'-cyclopentyl-2-nitro-1,1-ethenediamine] | 300 | 90 | 2700 | 2200 | 100 |  |  |  |  |  |  |  |  |
| CN(C)Cc1ccc(CSCCNC(=C[N+](=O)[O-])N[C@H]2C[C@H]3CC[C@@H]2C3)o1 (relative stereo) [AU/019] | 300 | 100 | 2600 | 2100 | 120 |  |  |  |  |  |  |  |  |
| CN(C)Cc1ccc(CSCCNC(=C[N+](=O)[O-])N2CC2)o1 [AU/007, 1-N-[2-[[5-[(dimethylamino)methyl]furfuryl]thio]ethyl]amino-1-ethyleneimino-2-nitroethene] | 310 | 100 | 2800 | 2100 | 100 |  |  |  |  |  |  |  |  |
| CN(C)Cc1ccc(CSCCNC(=C[N+](=O)[O-])N2CCCCCC2)o1 [AU/013, 1-N-[2-[[5-[(dimethylamino)methyl]furfuryl]thio]ethyl]-amino-1-hexamethyleneimino-2-nitroethene] | 300 | 90 | 2700 | 2100 | 100 | 5530 |  |  |  |  |  |  |  |
| CNC(=C[N+](=O)[O-])NCCSCc1ccc(CN(C)C)o1 [ranitidine] |  |  |  |  |  |  |  |  |  |  |  |  | significantly inhibit the incidence of gastric ulcers |
| CN/C(=N/CCSCc1nc[nH]c1C)NC#N [cimetidine] |  |  |  |  |  |  |  |  |  |  |  |  | significantly inhibit the incidence of gastric ulcers |
| CN(C)Cc1ccc(CSCCNC(=C[N+](=O)[O-])N2CCC2)o1 [AU/008, 1-N-[2-[[5-[(dimethylamino)methyl]furfuryl]thio]ethyl]amino-1-cyclopropyleneimino-2-nitroethene] | 310 | 100 | 2600 | 2200 | 100 |  |  |  |  |  |  |  |  |
| CN(C)Cc1ccc(CSCCNC(=C[N+](=O)[O-])N2CCN(CCO)CC2)o1 [AU/004, 1-N-[2-[[5-[(dimethylamino)methyl]furfuryl]thio]ethyl]-amino-1-4-(2-hydroxyethyl)-1-piperazino ethene] | 300 | 95 | 2700 | 2000 | 110 |  |  |  |  |  |  |  |  |
| CN(C)Cc1ccc(CSCCNC(=C[N+](=O)[O-])NC2CCCCCC2)o1 [AU/015, N-[2-[[5-[(dimethylamino)methyl]furfuryl]thio]ethyl]-N'-cycloheptyl-2-nitro-1,1-ethenediamine] | 300 | 100 | 2800 | 2200 | 100 |  |  |  |  |  |  |  |  |
| CN(C)Cc1ccc(CSCCNC(=C[N+](=O)[O-])NC2CCCCC2)o1 [AU/009, N-[2-[[5-[(dimethylamino)methyl]furfuryl]thio]ethyl]-N'-(cyclohexyl)-2-nitro-1,1-ethenediamine] | 300 | 100 | 2600 | 2200 | 110 |  |  |  |  |  |  |  |  |
| CN(C)Cc1ccc(CSCCNC(=C[N+](=O)[O-])N2CCOCC2)o1 [AU/018, 1-N-[2-[[5-[(dimethylamino)methyl]furfuryl]thio]ethyl]-amino-1-morpholino-2-nitroethene] | 350 | 90 | 2700 | 2200 | 100 |  |  |  |  |  |  |  |  |

Reference: US4613596A, “Amino methyl furans and pharmaceutical compositions” (Magis Farmaceutrici s.r.l., priority 1982, dated 1986)
